Values joined by “and” are separate entries in the source; they are usually repeats but may differ in a detail not shown here. Equal values may be shown once. Read-outs that look alike come from different tables or passages of the source. Numbered stars: 1 amine (or outer) side, 2 acyl side, 3 side chain; on linkers, the order of the positions; unused ones are H or OH. Bridge positions count the residues as written; N and C are the ends. Square brackets hold non-standard residues; d marks the D form. Peptide text beside a SMILES is read from it. * marks the point of attachment. X11 = O=C([C@H](Cc1c[nH]c2cc(C/C=C/c3ccccc3)ccc12)N[*:1])[*:2]; X10 = C=C(C)/C=C/C(C)n1cc(C[C@H](N[*:1])C(=O)[*:2])c2ccccc21; X12 = C=C(C)/C=C/Cc1[nH]c2ccccc2c1C[C@H](N[*:1])C(=O)[*:2]; X8 = C=CC1(n2cc(C[C@H](N[*:1])C(=O)[*:2])c3ccccc32)CCCCC1; X2 = O=C([C@H](Cc1cn(CC=C2CCCCC2)c2ccccc12)N[*:1])[*:2]; X6 = CC/C(C)=C/Cn1cc(C[C@H](N[*:1])C(=O)[*:2])c2ccccc21; X4 = CCC(=CCn1cc(C[C@H](N[*:1])C(=O)[*:2])c2ccccc21)CC; X7 = O=C([C@H](Cc1cn(CC2=CCCCC2)c2ccccc12)N[*:1])[*:2]; X9 = CC(C)=CCn1cc(C[C@H](N[*:1])C(=O)[*:2])c2ccccc21; Glu(3R-Me) = C[C@H](CC(=O)O)[C@H](N)C(=O)O; Kyn = Nc1ccccc1C(=O)C[C@H](N)C(=O)O; Decanoyl = CCCCCCCCCC(=O)*; Orn = NCCC[C@H](N)C(=O)O
Key:
S. aureus (hVISA, SR220) = conditions: DapS, VISA, BEI NR-50512; MIC90, broth microdilution, MHB + 50 mg L^−1 calcium, 35 °C, 22 h, A600, triplicate
E. faecalis (S613) = conditions: DapS, BEI HM-334, MIC90, broth microdilution, MHB + 50 mg L^−1 calcium, 35 °C, 22 h, A600, triplicate
E. faecalis (R712) = conditions: DapR, BEI HM-335; MIC90, broth microdilution, MHB + 50 mg L^−1 calcium, 35 °C, 22 h, A600, triplicate
[1] = tested on: S. aureus (SAUSA300_1713 NE573); conditions: DapR, strain JE2 transposon mutant NE573, BEI NR-47116; MIC90, broth microdilution, MHB + 50 mg L^−1 calcium, 35 °C, 22 h, A600, triplicate
[2] = tested on: S. aureus (SAUSA300_1715 NE1656); conditions: DapR, strain JE2 transposon mutant NE1656, BEI NR-48198; MIC90, broth microdilution, MHB + 50 mg L^−1 calcium, 35 °C, 22 h, A600, triplicate
[3] = tested on: E. faecalis (hVRE, ATCC 700802); conditions: vancomycin-resistant Enterococcus; Table 1, Fig. S1
S. aureus (ATCC 25923) = conditions: DapS strain; MIC90, broth microdilution, MHB + 50 mg L^−1 calcium, inoculum 1×10^5–5×10^5 CFU/mL, 35 °C, 22 h, A600, triplicate; converted from μM

Structure (SMILES) | MIC (S. aureus (hVISA, SR220)) | MIC (E. faecalis (S613)) | MIC (E. faecalis (S613); listed as Dap) | MIC (E. faecalis (R712)) | MIC [1] | MIC [2] | fold enhanced activity (compared with Dap) [3] | MIC (S. aureus (ATCC 25923))
CCCCCCCCCC(=O)N[C@@H](Cc1c[nH]c2ccccc12)C(=O)N[C@H](CC(N)=O)C(=O)N[C@@H](CC(=O)O)C(=O)N[C@@H]1C(=O)NCC(=O)N[C@@H](CCCN)C(=O)N[C@@H](CC(=O)O)C(=O)N[C@H](C)C(=O)N[C@@H](CC(=O)O)C(=O)NCC(=O)N[C@H](CO)C(=O)N[C@@H]([C@H](C)CC(=O)O)C(=O)N[C@@H](CC(=O)c2ccccc2N)C(=O)O[C@@H]1C [DAP, Daptomycin] | 4.0 µg/mL | 16.2 µg/mL | ~ 16 μg mL^−1 | >32.4 µg/mL | 16.2 µg/mL | 16.2 µg/mL |  | 
CCCCCCCCCC(=O)N[C@@H](Cc1cn(CC=C(C)C)c2ccccc12)C(=O)N[C@H](CC(N)=O)C(=O)N[C@@H](CC(=O)O)C(=O)N[C@@H]1C(=O)NCC(=O)N[C@@H](CCCN)C(=O)N[C@@H](CC(=O)O)C(=O)N[C@H](C)C(=O)N[C@@H](CC(=O)O)C(=O)NCC(=O)N[C@H](CO)C(=O)N[C@@H]([C@H](C)CC(=O)O)C(=O)N[C@@H](CC(=O)c2ccccc2N)C(=O)O[C@@H]1C [compound 40, N1-Trp-prenyl-Dap] (Decanoyl-[X9][dN]DTG[Orn]D[dA]DG[dS][Glu(3R-Me)][Kyn]; ester 4-C) | 0.5 µg/mL |  |  | 33.7 µg/mL |  |  |  | 
CCCCCCCCCC(=O)N[C@@H](Cc1cn(C/C=C(\C)CC)c2ccccc12)C(=O)N[C@H](CC(N)=O)C(=O)N[C@@H](CC(=O)O)C(=O)N[C@@H]1C(=O)NCC(=O)N[C@@H](CCCN)C(=O)N[C@@H](CC(=O)O)C(=O)N[C@H](C)C(=O)N[C@@H](CC(=O)O)C(=O)NCC(=O)N[C@H](CO)C(=O)N[C@@H]([C@H](C)CC(=O)O)C(=O)N[C@@H](CC(=O)c2ccccc2N)C(=O)O[C@@H]1C [compound 42, N1-6-Dap] (Decanoyl-[X6][dN]DTG[Orn]D[dA]DG[dS][Glu(3R-Me)][Kyn]; ester 4-C) | 0.5 µg/mL | 1.1 µg/mL |  | 17.0 µg/mL |  |  | 5–15 fold | 
CCCCCCCCCC(=O)N[C@@H](Cc1cn(CC=C(CC)CC)c2ccccc12)C(=O)N[C@H](CC(N)=O)C(=O)N[C@@H](CC(=O)O)C(=O)N[C@@H]1C(=O)NCC(=O)N[C@@H](CCCN)C(=O)N[C@@H](CC(=O)O)C(=O)N[C@H](C)C(=O)N[C@@H](CC(=O)O)C(=O)NCC(=O)N[C@H](CO)C(=O)N[C@@H]([C@H](C)CC(=O)O)C(=O)N[C@@H](CC(=O)c2ccccc2N)C(=O)O[C@@H]1C [compound 44, N1-7-Dap] (Decanoyl-[X4][dN]DTG[Orn]D[dA]DG[dS][Glu(3R-Me)][Kyn]; ester 4-C) | 0.5 µg/mL | 0.3 to 0.6 µg/mL and 0.5 µg/mL |  | 4.3 µg/mL |  | 0.5 µg/mL |  | 
C=C(C)/C=C/Cc1[nH]c2ccccc2c1C[C@H](NC(=O)CCCCCCCCC)C(=O)N[C@H](CC(N)=O)C(=O)N[C@@H](CC(=O)O)C(=O)N[C@@H]1C(=O)NCC(=O)N[C@@H](CCCN)C(=O)N[C@@H](CC(=O)O)C(=O)N[C@H](C)C(=O)N[C@@H](CC(=O)O)C(=O)NCC(=O)N[C@H](CO)C(=O)N[C@@H]([C@H](C)CC(=O)O)C(=O)N[C@@H](CC(=O)c2ccccc2N)C(=O)O[C@@H]1C [compound 46, C2R-16-Dap] (Decanoyl-[X12][dN]DTG[Orn]D[dA]DG[dS][Glu(3R-Me)][Kyn]; ester 4-C) | 17.0 µg/mL |  |  |  |  |  |  | 
C=C(C)/C=C/C(C)n1cc(C[C@H](NC(=O)CCCCCCCCC)C(=O)N[C@H](CC(N)=O)C(=O)N[C@@H](CC(=O)O)C(=O)N[C@@H]2C(=O)NCC(=O)N[C@@H](CCCN)C(=O)N[C@@H](CC(=O)O)C(=O)N[C@H](C)C(=O)N[C@@H](CC(=O)O)C(=O)NCC(=O)N[C@H](CO)C(=O)N[C@@H]([C@H](C)CC(=O)O)C(=O)N[C@@H](CC(=O)c3ccccc3N)C(=O)O[C@@H]2C)c2ccccc21 (stereo partly drawn) [compound 48, N1R-18-Dap] (Decanoyl-[X10][dN]DTG[Orn]D[dA]DG[dS][Glu(3R-Me)][Kyn]; ester 4-C) |  |  |  | 17.1 µg/mL |  |  |  | 17.1 µg/mL
C=CC1(n2cc(C[C@H](NC(=O)CCCCCCCCC)C(=O)N[C@H](CC(N)=O)C(=O)N[C@@H](CC(=O)O)C(=O)N[C@@H]3C(=O)NCC(=O)N[C@@H](CCCN)C(=O)N[C@@H](CC(=O)O)C(=O)N[C@H](C)C(=O)N[C@@H](CC(=O)O)C(=O)NCC(=O)N[C@H](CO)C(=O)N[C@@H]([C@H](C)CC(=O)O)C(=O)N[C@@H](CC(=O)c4ccccc4N)C(=O)O[C@@H]3C)c3ccccc32)CCCCC1 [compound 50, N1R-19-Dap] (Decanoyl-[X8][dN]DTG[Orn]D[dA]DG[dS][Glu(3R-Me)][Kyn]; ester 4-C) |  |  |  | 17.3 µg/mL |  |  |  | 
CCCCCCCCCC(=O)N[C@@H](Cc1cn(CC=C2CCCCC2)c2ccccc12)C(=O)N[C@H](CC(N)=O)C(=O)N[C@@H](CC(=O)O)C(=O)N[C@@H]1C(=O)NCC(=O)N[C@@H](CCCN)C(=O)N[C@@H](CC(=O)O)C(=O)N[C@H](C)C(=O)N[C@@H](CC(=O)O)C(=O)NCC(=O)N[C@H](CO)C(=O)N[C@@H]([C@H](C)CC(=O)O)C(=O)N[C@@H](CC(=O)c2ccccc2N)C(=O)O[C@@H]1C [compound 51, N1-19-Dap] (Decanoyl-[X2][dN]DTG[Orn]D[dA]DG[dS][Glu(3R-Me)][Kyn]; ester 4-C) | 1.1 µg/mL | 1.3 µg/mL |  | 5.2 µg/mL | 1.3 µg/mL | 2.6 µg/mL | 5–15 fold | 
CCCCCCCCCC(=O)N[C@@H](Cc1cn(CC2=CCCCC2)c2ccccc12)C(=O)N[C@H](CC(N)=O)C(=O)N[C@@H](CC(=O)O)C(=O)N[C@@H]1C(=O)NCC(=O)N[C@@H](CCCN)C(=O)N[C@@H](CC(=O)O)C(=O)N[C@H](C)C(=O)N[C@@H](CC(=O)O)C(=O)NCC(=O)N[C@H](CO)C(=O)N[C@@H]([C@H](C)CC(=O)O)C(=O)N[C@@H](CC(=O)c2ccccc2N)C(=O)O[C@@H]1C [compound 53, N1-20-Dap] (Decanoyl-[X7][dN]DTG[Orn]D[dA]DG[dS][Glu(3R-Me)][Kyn]; ester 4-C) |  | 17.1 µg/mL |  | >17.1 µg/mL | 17.1 µg/mL | 17.1 µg/mL |  | 
CCCCCCCCCC(=O)N[C@@H](Cc1c[nH]c2cc(C/C=C/c3ccccc3)ccc12)C(=O)N[C@H](CC(N)=O)C(=O)N[C@@H](CC(=O)O)C(=O)N[C@@H]1C(=O)NCC(=O)N[C@@H](CCCN)C(=O)N[C@@H](CC(=O)O)C(=O)N[C@H](C)C(=O)N[C@@H](CC(=O)O)C(=O)NCC(=O)N[C@H](CO)C(=O)N[C@@H]([C@H](C)CC(=O)O)C(=O)N[C@@H](CC(=O)c2ccccc2N)C(=O)O[C@@H]1C [compound 54, C6-22-Dap] (Decanoyl-[X11][dN]DTG[Orn]D[dA]DG[dS][Glu(3R-Me)][Kyn]; ester 4-C) |  |  |  | 8.7 µg/mL |  |  |  | 
